Values joined by “and” are separate entries in the source; they are usually repeats but may differ in a detail not shown here. Identical values can stand only once. Like-named read-outs stand apart in the source and are kept apart here.
Legend:
[1] = tested on: C. albicans ATCC 90028; assay: Antifungal MIC assay (broth microdilution in YNB); type: cell-based, Candida albicans; settings: for MIC Candida albicans ATCC 90028: Table S1; for MIC: read-out: MIC C. albicans ATCC 90028
From the text: (§1) Yeast strains: Candida albicans (ATCC 90028, NCCLS 11), Cryptococcus neoformans (ATCC 208821, H99 type strain), Candida tropicalis (ATCC 750, type strain), Candida glabrata (ATCC 90030, NCCLS 84) and Cryptococcus deuterogattii (ATCC 32609, type strain) were obtained from the American Type Culture Collection (ATCC). Cryptococcus deuterogattii (CBS 7750), Candida auris (CBS 10913) and Candida auris (CBS 12373) were obtained from the CBS‐KNAW culture collection. The strains were maintained on glycerol/YPD (yeast extract‐peptone dextrose) broth (20:80 v/v) at −80 °C.
(§2) Antifungal minimum inhibitory concentration (MIC) assay: The cobalt complexes and antifungal control compounds were serially diluted in 50 μL of Yeast Nitrogen Broth (YNB; BD, Cat No. 233520 supplemented with 2 % glucose and 10 mM ammonium sulfate) two‐fold across the wells of non‐binding surface (NBS) 96‐well plates (Corning; Cat. No. 3641). Plates were set up in quadruplicate for each strain tested, and two biological replicates were conducted on separate assay days.
(§3) Yeast strains were cultured from glycerol onto YPD (Becton Dickinson 242720) agar at 30 °C for 72 h. For each strain, a minimum of five single colonies were taken from the agar plate and dissolved in sterile water and adjusted to form a yeast suspension of 1×10^6 to 5×10^6 CFU mL^−1 (as determined by OD530). The suspension was subsequently diluted into YNB media, and added to each well of the compound containing plates, giving a final cell density of 2.5×10^3 CFU mL^−1 and a total volume of 100 μL. Plates were covered and incubated at 35 °C for 36 h without shaking.
(§4) Growth inhibition of all strains was determined visually where the MIC was recorded as the lowest compound concentration with no visible growth. Fluconazole (Sigma F8929), ketoconazole (Sigma K1003) and micafungin (Sigma SML2288) were used as internal positive inhibitor controls for every strain tested.

[2] = tested on: C. auris CBS 10913; assay: Antifungal MIC assay (broth microdilution in YNB); type: cell-based, Candida auris; settings: for MIC Candida auris CBS 10913: Table S1
From the text: as §1, §2, §3, §4

[3] = tested on: C. auris CBS 12373; assay: Antifungal MIC assay (broth microdilution in YNB); type: cell-based, Candida auris; settings: for MIC Candida auris CBS 12373: Table S1; for MIC: range of MICs, n=8, 35 °C, 36 h, visual, read-out: MIC C. auris CBS 12373
From the text: as §1, §2, §3, §4

[4] = tested on: C. glabrata ATCC 90030; assay: Antifungal MIC assay (broth microdilution in YNB); type: cell-based, Candida glabrata; settings: for MIC Candida glabrata ATCC 90030: Table S1; for MIC: range of MICs, n=8, 35 °C, 36 h, visual, read-out: MIC C. glabrata ATCC 90030
From the text: as §1, §2, §3, §4

[5] = tested on: C. tropicalis ATCC 750; assay: Antifungal MIC assay (broth microdilution in YNB); type: cell-based, Candida tropicalis; settings: for MIC Candida tropicalis ATCC 750: Table S1; for MIC: read-out: MIC C. tropicalis ATCC 750
From the text: as §1, §2, §3, §4

[6] = tested on: C. deuterogattii ATCC 32609; assay: Antifungal MIC assay (broth microdilution in YNB); type: cell-based, Cryptococcus deuterogattii; settings: for MIC Cryptococcus deuterogattii ATCC 32609: Table S1; for MIC: read-out: MIC C. deuterogattii ATCC 32609
From the text: as §1, §2, §3, §4

[7] = tested on: C. deuterogattii CBS 7750; assay: Antifungal MIC assay (broth microdilution in YNB); type: cell-based, Cryptococcus deuterogattii; settings: for MIC Cryptococcus deuterogattii CBS 7750: Table S1; for MIC: range of MICs, n=8, 35 °C, 36 h, visual, read-out: MIC C. deuterogattii CBS 7750
From the text: as §1, §2, §3, §4

[8] = tested on: human red blood cells; assay: Haemolysis assay; type: cell-based; settings: 1 h at 37 °C
Method: Haemolysis assay: Human whole blood (Australian Red Cross Blood Service) was washed three times with three volumes of 0.9 % NaCl and resuspended in a concentration of 0.5×10^8 cells mL^−1, determined by manual cell count in a Neubauer haemocytometer. Washed cells were added to compound containing plates (384‐well round bottom polypropylene plates, Corning 3657) for a final volume of 50 μL, shaken for 10 min and incubated for 1 h at 37 °C, without shaking. After incubation, the plates were centrifuged at 1000 g for 10 min to pellet cells and debris, 25 μL of the supernatant was then transferred to reading plates (384‐well flat bottom polystyrene plates, Corning CLS3680), with haemolysis determined by measuring the supernatant absorbance at […] (OD405), using cells without inhibitors as negative control and cells with 1 % Triton X‐100 (Sigma T8787) as positive control. HC10 and HC50 (concentration at which 10 and 50 % haemolysis is induced, respectively) were calculated by curve fitting the inhibition values vs. log(concentration) of four replicates using a sigmoidal dose–response function with variable fitting values for top, bottom and slope using Prism 8. Melittin (Sigma M2272) was used as positive haemolytic control on each plate. Human ethics approval from the University of Queensland Institutional Human Research Ethics Committee was obtained for use of human blood for haemolysis studies (approval number 201400003).

[9] = tested on: Staphylococcus aureus ATCC 43300 (MRSA); assay: CO-ADD bacterial broth microdilution MIC assay; type: cell-based; settings: CAMHB, 37 °C, 18 h, ≥ 80% inhibition
Method: (§5) CO-ADD High Throughput Screening
(§6) Bacterial broth microdilution minimum inhibitory concentration (MIC) assay Bacterial strains were cultured in Cation-adjusted Mueller Hinton broth (CAMHB; Bacto Laboratories 212322) at 37 °C overnight. A sample of each culture was then diluted 40-fold in fresh CAMHB and incubated at 37 °C for 1.5-3 h. The resultant mid-log phase cultures were diluted with CAMHB (CFU/mL measured by OD600), then added to each well of the compound-containing plates (384-well non-binding surface (NBS) plates; Corning CLS3640), giving a cell density of 5 × 10^5 CFU/mL and a total volume of 50 µL. Plates were covered and incubated at 37 °C for 18 h without shaking. Inhibition of bacterial growth was determined measuring absorbance at 600 nm (OD600), using media only as negative control and bacteria without inhibitors as positive control. MIC values were determined as the lowest concentration at which the growth was inhibited at ≥ 80%. Colistin sulfate (Sigma C4461) and vancomycin HCl (Sigma 861987) were used as positive inhibitor controls on each plate for Gram-negative and Gram-positive bacteria, respectively.
(§7) Figure S1. 1H NMR (400 MHz) of [Co(ATS)(DMAP)2]NO3 (3) in DMSO-d6.
(§8) (1 picture or pasted object on this page, not shown here)

[10] = tested on: Klebsiella pneumoniae ATCC 700603 (K6; ESBL SHV-18); type: cell-based; settings: 18 h
Method: as §5, §6, §7, §8

[11] = range of MICs, n=8, 35 °C, 36 h, visual

SMILES	MIC Candida albicans ATCC 90028 [1] [µg/mL]	MIC [1, 11] [µM]	MIC Candida auris CBS 10913 [2] [µg/mL]	MIC Candida auris CBS 12373 [3] [µg/mL]	MIC [3] [µM]	MIC Candida glabrata ATCC 90030 [4] [µg/mL]	MIC [4] [µM]	MIC Candida tropicalis ATCC 750 [5] [µg/mL]	MIC [5, 11] [µM]	MIC Cryptococcus deuterogattii ATCC 32609 [6] [µg/mL]	MIC [6, 11] [µM]	MIC Cryptococcus deuterogattii CBS 7750 [7] [µg/mL]	MIC [7] [µM]	Haem HC10 (concentration at which 10 % haemolysis is reached) [8]	MIC Sa (Staphylococcus aureus ATCC 43300, MRSA) [9] [µg/mL]	MIC C. auris CBS 10913 [2, 11] [µM]	MIC Kp (Klebsiella pneumoniae ATCC 700603) [10] [µg/mL]	also measured
O=[N+]([O-])[O-].O=[N+]([O-])[O-].[Co+2] [Co, Co(NO3)2, reference compound]	> 29.1	>100	> 29.1	29.1	100	> 29.1	>100	> 29.1	>100	> 29.1	>100	> 29.1	>100	>100 µM	> 32			MIC ([2]; range of MICs, n=8, 35 °C, 36 h, visual, read-out: MIC C. auris CBS 10913): >100 µM; MIC Kp (Klebsiella pneumoniae ATCC 700603) ([10]; CAMHB, 37 °C, ≥ 80% inhibition): > 32 µg/mL
CC1=[N+]2N=C(N)[S][Co-3]23([n+]2ccc(N(C)C)cc2)([n+]2ccc(N(C)C)cc2)[S]C(N)=N[N+]3=C1C.O=[N+]([O-])[O-] [Compound 3, [Co(ATS)(DMAP)2]NO3]	0.93	1.56	0.23 to 0.46	0.46	0.78	29.7	50	0.23 to 0.46		0.93 to 1.86		0.93	1.56	73.1 µM and 73.1 ± 20.4 µM	> 32	0.39 to 0.78	> 32	MIC C. tropicalis ATCC 750 [5, 11]: 0.39 to 0.78 µM; MIC C. deuterogattii ATCC 32609 [6, 11]: 1.56 to 3.12 µM
O=[N+]([O-])[O-].[NH3+][Co-3]123([NH3+])[O]c4c(F)cccc4C=[N+]1c1ccccc1[N+]2=Cc1cccc(F)c1[O]3 [Compound 7, [Co(3F‐salophen)(NH3)2]NO3]	23.9 to 47.8		0.37 to 0.75	23.9	50	47.8	100	47.8	100	47.8	100	47.8	100	>100 µM	> 32	0.78 to 1.56	> 32	MIC C. albicans ATCC 90028 [1, 11]: 50 to 100 µM; MIC C. auris CBS 10913, lowest value ('as low as') ([2]; lower end of MIC range): 0.78 µM

— publication PMC7855930, “Nontoxic Cobalt(III) Schiff Base Complexes with Broad‐Spectrum Antifungal Activity” (Chemistry (Weinheim an Der Bergstrasse, Germany), 2020)
